According to ChEMBL document CHEMBL5316350, “Novel Pyrido[2',1':2,3]imidazo[4,5-c]quinoline Derivative Selectively Poisons Leishmania donovani Bisubunit Topoisomerase 1 to Inhibit the Antimony-Resistant Leishmania Infection in Vivo” (J Med Chem, 2023):
Activity calls are given as the source filed them. The rule behind the calls is not given here.

How the values were obtained:
Leishmania donovani [1] = assay: Induction of cell cycle arrest in Leishmania donovani Ag83 promastigotes assessed as accumulation of cells in S/G2 phase at 5 uM by PI staining based flow cytometry; format: functional, organism-based; settings: time 6-24 hrs
[2] = molecular target: T1, DNA topoisomerase I (Leishmania donovani (strain BPK282A1)) (UniProt E9BRC0); assay: Binding affinity to antimony resistant Leishmania donovani BHU575 promastigotes recombinant topoisomerase I assessed as fold change in stabilization of cleavage complex at 5 to 50 uM measured after 30 mins relative to camptothecin; settings: dose 5-50 µM
T1 sequence (whole entry): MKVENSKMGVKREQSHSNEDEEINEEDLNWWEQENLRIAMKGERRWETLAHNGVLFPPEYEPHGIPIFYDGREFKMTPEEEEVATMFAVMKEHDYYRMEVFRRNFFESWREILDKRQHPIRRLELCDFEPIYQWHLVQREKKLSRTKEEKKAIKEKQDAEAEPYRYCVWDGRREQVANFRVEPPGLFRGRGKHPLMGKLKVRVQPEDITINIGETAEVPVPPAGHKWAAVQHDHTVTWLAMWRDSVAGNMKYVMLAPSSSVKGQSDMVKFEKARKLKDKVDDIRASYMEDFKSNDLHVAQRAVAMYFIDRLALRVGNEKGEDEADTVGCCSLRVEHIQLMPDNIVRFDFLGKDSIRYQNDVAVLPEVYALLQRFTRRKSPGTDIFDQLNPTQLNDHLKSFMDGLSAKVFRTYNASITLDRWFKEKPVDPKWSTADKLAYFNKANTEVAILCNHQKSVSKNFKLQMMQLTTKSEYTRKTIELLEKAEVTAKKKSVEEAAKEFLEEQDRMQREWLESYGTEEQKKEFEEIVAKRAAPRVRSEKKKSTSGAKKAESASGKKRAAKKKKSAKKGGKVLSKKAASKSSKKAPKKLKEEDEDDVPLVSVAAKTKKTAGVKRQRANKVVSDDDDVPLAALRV

MCF7 = assay: Induction of cell cycle arrest in human MCF7 cells measured at 5 uM upto 24 hrs by PI staining based flow cytometry; format: functional
[3] = molecular target: T1, DNA topoisomerase I (Leishmania donovani (strain BPK282A1)); assay: Inhibition of recombinant Top1 in Leishmania donovani Ag83 whole cell extract preincubated with compound for 5 mins followed by plasmid DNA addition at 5 to 20 uM measured after 30 mins; settings: dose 5-20 µM
[4] = molecular target: T2, DNA topoisomerase 1 (Homo sapiens) (UniProt P11387); assay: Inhibition of human recombinant Top1 assessed as stabilization of clevage complex upto 100 uM measured after 30 mins
T2 sequence (whole entry): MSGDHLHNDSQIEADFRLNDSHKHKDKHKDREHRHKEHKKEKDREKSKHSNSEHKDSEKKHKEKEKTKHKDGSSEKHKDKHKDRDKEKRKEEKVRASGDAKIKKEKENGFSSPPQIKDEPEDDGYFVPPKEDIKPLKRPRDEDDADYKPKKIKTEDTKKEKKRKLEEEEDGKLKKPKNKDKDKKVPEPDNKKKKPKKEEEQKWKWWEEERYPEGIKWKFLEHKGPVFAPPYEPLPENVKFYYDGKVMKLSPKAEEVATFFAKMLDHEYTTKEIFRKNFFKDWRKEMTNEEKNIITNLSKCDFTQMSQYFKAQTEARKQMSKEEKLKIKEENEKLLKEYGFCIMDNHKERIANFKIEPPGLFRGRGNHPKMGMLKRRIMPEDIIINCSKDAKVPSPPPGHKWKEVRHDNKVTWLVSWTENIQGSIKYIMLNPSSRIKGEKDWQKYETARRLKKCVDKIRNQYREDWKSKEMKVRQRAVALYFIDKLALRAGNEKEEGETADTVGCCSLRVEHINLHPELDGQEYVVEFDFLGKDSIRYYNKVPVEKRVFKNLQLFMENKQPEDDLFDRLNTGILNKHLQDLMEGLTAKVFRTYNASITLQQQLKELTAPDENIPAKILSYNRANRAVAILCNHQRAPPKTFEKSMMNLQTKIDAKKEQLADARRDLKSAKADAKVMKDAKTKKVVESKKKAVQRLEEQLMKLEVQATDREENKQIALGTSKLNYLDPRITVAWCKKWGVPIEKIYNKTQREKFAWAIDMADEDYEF

Leishmania donovani [5] = assay: Antileishmanial activity against Leishmania donovani Ag83 promastigotes infected in BALB/c mouse assessed as reduction of macrophage at 1 to 10 uM infection by propidium iodide staining analysis; format: functional, organism-based; settings: dose 1-10 µM, time 72-96 hrs, TDE = time-dependent effect
Leishmania donovani [6] = assay: Antileishmanial activity against antimony resistant Leishmania donovani BHU575 promastigotes infected in BALB/c mouse assessed as reduction of macrophage at 1 to 10 uM infection by propidium iodide staining analysis; format: functional, organism-based; settings: dose 1-10 µM, time 72-96 hrs, TDE = time-dependent effect
Leishmania donovani [7] = assay: Stabilization of Leishmania donovani recombinant topoisomerase I/25-mer duplex oligonucleotide DNA complex assessed as fold change in stabilization at 5 to 25 uM measured after 30 mins; settings: dose 5-25 µM
[8] = Toxicity in BALB/c mouse infected with Antimony resistant Leishmania donovani BHU575 promastigotes assessed as change in body weight treated after 3 weeks of infection at 5 to 10 mg/kg, ip twice a week for 3 weeks; format: organism-based; settings: in vivo, dose 5-10 mg/kg
Leishmania donovani [9] = assay: Induction of cell cycle arrest in antimony resistant Leishmania donovani BHU575 promastigotes assessed as decrease in accumulation of cells in G2/M phase at 5 uM measured after 12 hrs by PI staining based flow cytometry (reference value: 8.8%); format: functional; design: scale not given: the % may be the effect or the level left
[10] = molecular target: T1, DNA topoisomerase I (Leishmania donovani (strain BPK282A1)); assay: Inhibition of recombinant Top1 in Leishmania donovani Ag83 whole cell extract assessed as relaxation of supercoiled pBluescript SK(+) DNA at 10 uM incubated for 30 mins by agarose gel electrophoresis analysis relative to control
Leishmania donovani [11] = assay: Induction of apoptosis in antimony resistant Leishmania donovani BHU575 promastigotes at 5 uM measured after 6 to 24 hrs by FITC-Annexin V-based flow cytometric analysis; format: functional, organism-based; settings: time 6-24 hrs
Leishmania donovani [12] = assay: Antileishmanial activity against antimony resistant Leishmania donovani BHU575 promastigotes infected in BALB/c mouse assessed as reduction of amastigote burden by measuring parasite count in blood treated after 3 weeks of infection at 5 to 10 mg/kg, ip twice a week for 3 weeks by qPCR based kineto-plastid DNA; format: functional, organism-based; settings: dose 5-10 mg/kg
Leishmania donovani [13] = assay: Antileishmanial activity in Leishmania donovani BHU575 promastigotes assessed as TUNEL positive cells at 5 uM measured after 12 hrs by confocal microscopic analysis relative to control; format: functional
Leishmania donovani [14] = assay: Induction of apoptosis in Leishmania donovani Ag83 promastigotes assessed as DNA break accumulation measured at 5 uM after 15 mins by TUNEL staining based assay; format: functional, organism-based
Leishmania donovani [15] = assay: Induction of cell cycle arrest in Leishmania donovani Ag83 promastigotes assessed as decrease in accumulation of cells in G0/G1 phase at 5 uM measured after 24 hrs by PI staining based flow cytometry (reference value: 65.1%); format: functional; design: scale not given: the % may be the effect or the level left
[16] = molecular target: T1, DNA topoisomerase I (Leishmania donovani (strain BPK282A1)); assay: Inhibition of Leishmania donovani topoisomerase I assessed as DNA intercalation using pBluscript (SK+) DNA as substrate at 20 to 200 uM incubated for 15 mins ethidium bromide staining based UV analysis; settings: dose 20-200 µM
[17] = molecular target: T1, DNA topoisomerase I (Leishmania donovani (strain BPK282A1)); assay: Inhibition of Leishmania donovani recombinant Top1 assessed as relaxation of supercoiled pBluescript SK(+) DNA incubated for 30 mins by agarose gel electrophoresis analysis; settings: dose 0.5-10 µM

COc1cc(-c2nc3ccccc3c3nc4ccccn4c23)cc(OC)c1OC
Activity (Leishmania donovani [1]): Dose-Dependent Effect | fold change (FC) [2]: 5 | Activity (MCF7): inactive | inhibition [3]: inactive | inhibition [4]: inactive | Activity (Leishmania donovani [5]): Tde | Activity (Leishmania donovani [6]): Tde | fold change (FC) (Leishmania donovani [7]): 2 | Activity [8]: Non-Toxic | Activity (Leishmania donovani [9]): 27.5% | inhibition [10]: 85% | Activity (Leishmania donovani [11]): Active | Activity (Leishmania donovani [12]): Active | Activity (Leishmania donovani [13]): 60% | Activity (Leishmania donovani [14]): Active | Activity (Leishmania donovani [15]): 31.5% | inhibition [16]: inactive | inhibition [17]: Dose-Dependent Effect
